ChEMBL document CHEMBL1795319, “Design, synthesis and antifungal evaluation of 1-(2-(2,4-difluorophenyl)-2-hydroxy-3-(1H-1,2,4-triazol-1-yl)propyl)-1H-1,2,4-triazol-5(4H)-one” (2011)
Converted amounts (≈) assume the structure as drawn.

Tests used:
Assay type in all cases: functional
Kluyveromyces marxianus = assay: Antifungal activity against Candida kefyr by micro-broth dilution method
Trichophyton rubrum = assay: Antifungal activity against Trichophyton rubrum by micro-broth dilution method
Cryptococcus neoformans = assay: Antifungal activity against Cryptococcus neoformans BLS108 after 72 hrs by micro-broth dilution method; conditions: BLS108, 72 h
Aspergillus fumigatus = assay: Antifungal activity against Aspergillus fumigatus by broth microdilution method
Candida parapsilosis = assay: Antifungal activity against Candida parapsilosis by micro-broth dilution method; conditions: Lodderomyces parapsilosis
Candida tropicalis = assay: Antifungal activity against Candida tropicalis by micro-broth dilution method
Candida albicans [1] = assay: Antifungal activity against Candida albicans Y0109 after 24 hrs by micro-broth dilution method; conditions: Y0109, 24 h
Candida albicans [2] = assay: Antifungal activity against Candida albicans SC5314 after 24 hrs by micro-broth dilution method; conditions: SC5314, 24 h

| Structure (SMILES) | MIC80 (Kluyveromyces marxianus) | MIC80 (Trichophyton rubrum) | MIC80 (Cryptococcus neoformans) | MIC80 (Aspergillus fumigatus) | MIC80 (Candida parapsilosis) | MIC80 (Candida tropicalis) | MIC80 (Candida albicans [1]) | MIC80 (Candida albicans [2]) |
| --- | --- | --- | --- | --- | --- | --- | --- | --- |
| CCCCC(=O)Nc1ccc(-n2cnn(CC(O)(Cn3cncn3)c3ccc(F)cc3F)c2=O)cc1 (racemic) | 64 µg/mL (≈ 129 µM) | > 64 µg/mL | 0.0625 µg/mL (≈ 0.126 µM) | > 64 µg/mL | 0.00024 µg/mL (≈ 0.000482 µM) | 0.0625 µg/mL (≈ 0.126 µM) | 0.00024 µg/mL (≈ 0.000482 µM) | 0.00097 µg/mL (≈ 0.00195 µM) |
| C[C@@H]1[C@H](O)[C@@H](C)/C=C/C=C/C=C/C=C/C=C/C=C/C=C/[C@H](O[C@@H]2O[C@H](C)[C@@H](O)[C@H](N)[C@@H]2O)C[C@@H]2O[C@](O)(C[C@@H](O)C[C@@H](O)[C@H](O)CC[C@@H](O)C[C@@H](O)CC(=O)O[C@H]1C)C[C@H](O)[C@H]2C(=O)O [AMPHOTERICIN B] | 0.25 µg/mL (≈ 0.271 µM) | 4 µg/mL (≈ 4.33 µM) | 1 µg/mL (≈ 1.08 µM) | 1 µg/mL (≈ 1.08 µM) | 0.25 µg/mL (≈ 0.271 µM) | 1 µg/mL (≈ 1.08 µM) | 0.25 µg/mL (≈ 0.271 µM) | 0.25 µg/mL (≈ 0.271 µM) |
| O=C(Nc1ccc(-n2cnn(CC(O)(Cn3cncn3)c3ccc(F)cc3F)c2=O)cc1)c1ccco1 (racemic) | 4 µg/mL (≈ 7.88 µM) | > 64 µg/mL | 16 µg/mL (≈ 31.5 µM) | > 64 µg/mL | 0.0625 µg/mL (≈ 0.123 µM) | 1 µg/mL (≈ 1.97 µM) | 0.25 µg/mL (≈ 0.493 µM) | 0.25 µg/mL (≈ 0.493 µM) |
| O=c1n(-c2ccc(Br)cc2)cnn1CC(O)(Cn1cncn1)c1ccc(F)cc1F (racemic) | 0.0156 µg/mL (≈ 0.0327 µM) | 16 µg/mL (≈ 33.5 µM) | 16 µg/mL (≈ 33.5 µM) | > 64 µg/mL | 1 µg/mL (≈ 2.1 µM) | 0.0625 µg/mL (≈ 0.131 µM) | 0.156 µg/mL (≈ 0.327 µM) | 1 µg/mL (≈ 2.1 µM) |

Continued, values first:

| MIC80 (Kluyveromyces marxianus) | MIC80 (Trichophyton rubrum) | MIC80 (Cryptococcus neoformans) | MIC80 (Aspergillus fumigatus) | MIC80 (Candida parapsilosis) | MIC80 (Candida tropicalis) | MIC80 (Candida albicans [1]) | MIC80 (Candida albicans [2]) | Structure (SMILES) |
| --- | --- | --- | --- | --- | --- | --- | --- | --- |
| 1 µg/mL (≈ 1.9 µM) | 64 µg/mL (≈ 122 µM) | 0.0625 µg/mL (≈ 0.119 µM) | > 64 µg/mL | 1 µg/mL (≈ 1.9 µM) | 64 µg/mL (≈ 122 µM) | 0.0625 µg/mL (≈ 0.119 µM) | 0.0039 µg/mL (≈ 0.00742 µM) | CCCCCCC(=O)Nc1ccc(-n2cnn(CC(O)(Cn3cncn3)c3ccc(F)cc3F)c2=O)cc1 (racemic) |
| > 64 µg/mL | > 64 µg/mL | > 64 µg/mL | > 64 µg/mL | 64 µg/mL (≈ 119 µM) | 64 µg/mL (≈ 119 µM) | 16 µg/mL (≈ 29.7 µM) | 4 µg/mL (≈ 7.41 µM) | CCCCCCCC(=O)Nc1ccc(-n2cnn(CC(O)(Cn3cncn3)c3ccc(F)cc3F)c2=O)cc1 (racemic) |
| 4 µg/mL (≈ 7.82 µM) | 64 µg/mL (≈ 125 µM) | 0.0625 µg/mL (≈ 0.122 µM) | > 64 µg/mL | 0.00024 µg/mL (≈ 0.000469 µM) | 0.00097 µg/mL (≈ 0.0019 µM) | 0.00024 µg/mL (≈ 0.000469 µM) | 0.00097 µg/mL (≈ 0.0019 µM) | CCCCCC(=O)Nc1ccc(-n2cnn(CC(O)(Cn3cncn3)c3ccc(F)cc3F)c2=O)cc1 (racemic) |
| 4 µg/mL (≈ 9.68 µM) | 16 µg/mL (≈ 38.7 µM) | 16 µg/mL (≈ 38.7 µM) | > 64 µg/mL | 4 µg/mL (≈ 9.68 µM) | 64 µg/mL (≈ 155 µM) | 4 µg/mL (≈ 9.68 µM) | 4 µg/mL (≈ 9.68 µM) | Cc1ccc(-n2cnn(CC(O)(Cn3cncn3)c3ccc(F)cc3F)c2=O)nc1 (racemic) |
| 0.25 µg/mL (≈ 0.6 µM) | 64 µg/mL (≈ 154 µM) | > 64 µg/mL | > 64 µg/mL | 4 µg/mL (≈ 9.61 µM) | 0.25 µg/mL (≈ 0.6 µM) | 1 µg/mL (≈ 2.4 µM) | 1 µg/mL (≈ 2.4 µM) | O=c1n(-c2ccc(F)cc2)cnn1CC(O)(Cn1cncn1)c1ccc(F)cc1F (racemic) |
